As usually defined, the IC50 is the concentration that gives 50% inhibition.

Counter-ions that a name gives are not always drawn.

This is an account of results in patent US10745384B2, “Indazole derivatives as αv integrin antagonists” (BRISTOL-MYERS SQUIBB COMPANY, priority 2016, dated 2020).

Experiment [1] has as its target human αVβ5 (Homo sapiens, UniProt P06756+P18084). The experiment is described as follows: human αVβ5 HTRF binding assay. Here is the method:
(§1) All binding assays used the HTRF (homogeneous time resolved fluorescence) technology from Cisbio International, therefore all assays are described as HTRF binding assays. The assay results for the Examples are listed above together with the characterization data. The HTRF binding assays are established for the following integrins: human αVβ6, human αVβ1, human αVβ3, human αVβ5, and human αVβ8. All assays used the following assay buffer: 20 mM Tris, pH 7.4, 1 mM MgCl2, 1 mM MnCl2, 0.01% Tween 20, and 0.01% BSA. Alternatively, a SPA-based assay was used for evaluation of receptor binding.
(§2) The following describes the components and a representative procedure for the human αVβ6 HTRF binding assay: Recombinant human αVβ6 Integrin (R & D systems, 3817-AV) was biotinylated. Biotinylated human αVβ6 Integrin was added to assay vessel at a final concentration of 1.25 nM. FITC-conjugated fibronectin (Cytoskeleton, FNR02) was then added at the final concentration of 5 nM. The mixture was centrifuged at 600 rpm for three minutes using Thermo Fisher Heraeus Multifuge X3 centrifuge and then incubated at room temperature for an hour. Streptavidin Terbium (Cisbio international 610STLB) was then added at the final concentration of 0.625 nM. The resulting mixture was centrifuged at 600 rpm for three minutes using Thermo Fisher Heraeus Multifuge X3 centrifuge and then incubated at room temperature overnight in dark before reading HTRF signals. […]

Experiment [2] addresses human αVβ1 (Homo sapiens, UniProt P05556+P06756). The experiment is described as follows: human αVβ1 HTRF binding assay. On the procedure: as §1
The following describes the components and a representative procedure for the human αVβ6 HTRF binding assay: Recombinant human αVβ6 Integrin (R & D systems, 3817-AV) was biotinylated. Biotinylated human αVβ6 Integrin was added to assay vessel at a final concentration of 1.25 nM. FITC-conjugated fibronectin (Cytoskeleton, FNR02) was then added at the final concentration of 5 nM. The mixture was centrifuged at 600 rpm for three minutes using Thermo Fisher Heraeus Multifuge X3 centrifuge and then incubated at room temperature for an hour. Streptavidin Terbium (Cisbio international 610STLB) was then added at the final concentration of 0.625 nM. The resulting mixture was centrifuged at 600 rpm for three minutes using Thermo Fisher Heraeus Multifuge X3 centrifuge and then incubated at room temperature overnight in dark before reading HTRF signals.
The SPA-based assay was carried out according to the protocol and procedures similar to the ones described in the following reference with appropriate modifications to agents and ligands which are readily understood by one skilled in the art: Pachter J A, Zhang R, Mayer-Ezell R., “Scintillation proximity assay to measure binding of soluble fibronectin to antibody-captured αVβ1 integrin” Anal Biochem. 1995 Sep. 1; 230(1):101-7.
Background: TR-FRET usually uses a lanthanide donor and a delayed reading to cut background.

The target of experiment [3] is human αVβ3 (Homo sapiens, UniProt P05106+P06756). The experiment is described as follows: human αVβ3 HTRF binding assay. On the procedure: as §1, §2
For experiment [4], the target named is human αVβ8 (Homo sapiens, UniProt P06756+P26012). The experiment is described as follows: human αVβ8 HTRF binding assay. Here is the method:
as §1, §2

Experiment [5] concerns the target T1, human αVβ6 (Homo sapiens, UniProt P06756+P18564).
T1 construct: purchased R & D systems 3817-AV
Briefly: human αVβ6 HTRF binding assay. The following applies: recombinant human αVβ6 integrin, FITC-conjugated fibronectin. A digest of the protocol: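 HTRF binding in 20 mM Tris pH 7.4 with 1 mM MgCl2, 1 mM MnCl2, 0.01% Tween 20 and 0.01% BSA. For αVβ6, biotinylated integrin (1.25 nM) and FITC-fibronectin (5 nM) were incubated 1 h at RT, then streptavidin-terbium (0.625 nM) was added overnight in the dark. An SPA-based fibronectin binding format was an alternative.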

Sequence of human αVβ5 (P06756 31-992 limits assumed): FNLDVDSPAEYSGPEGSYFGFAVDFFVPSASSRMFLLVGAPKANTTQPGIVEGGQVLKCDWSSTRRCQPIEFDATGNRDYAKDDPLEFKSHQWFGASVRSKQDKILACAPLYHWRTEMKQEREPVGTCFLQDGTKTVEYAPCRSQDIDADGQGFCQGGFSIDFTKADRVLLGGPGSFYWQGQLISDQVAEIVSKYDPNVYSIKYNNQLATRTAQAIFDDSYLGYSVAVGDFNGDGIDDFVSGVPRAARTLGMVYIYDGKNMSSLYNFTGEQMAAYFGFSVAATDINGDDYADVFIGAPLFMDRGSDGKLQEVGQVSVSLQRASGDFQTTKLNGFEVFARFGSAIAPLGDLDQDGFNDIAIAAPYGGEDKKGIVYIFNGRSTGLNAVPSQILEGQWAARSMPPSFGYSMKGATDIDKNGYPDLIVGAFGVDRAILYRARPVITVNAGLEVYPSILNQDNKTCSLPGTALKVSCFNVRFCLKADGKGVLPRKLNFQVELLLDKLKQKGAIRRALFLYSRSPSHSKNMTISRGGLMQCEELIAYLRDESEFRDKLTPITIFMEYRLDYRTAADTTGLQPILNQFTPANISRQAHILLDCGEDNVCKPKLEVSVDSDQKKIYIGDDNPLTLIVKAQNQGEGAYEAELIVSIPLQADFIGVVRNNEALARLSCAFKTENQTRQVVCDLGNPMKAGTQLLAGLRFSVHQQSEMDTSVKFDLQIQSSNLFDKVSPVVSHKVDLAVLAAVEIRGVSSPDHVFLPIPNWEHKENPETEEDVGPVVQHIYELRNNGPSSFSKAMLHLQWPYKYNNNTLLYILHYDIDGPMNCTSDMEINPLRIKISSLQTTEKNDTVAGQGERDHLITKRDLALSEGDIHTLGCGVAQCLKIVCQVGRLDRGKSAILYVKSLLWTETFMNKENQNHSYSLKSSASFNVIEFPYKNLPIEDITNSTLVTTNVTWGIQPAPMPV
Sequence of human αVβ5 (P18084 24-719 limits assumed): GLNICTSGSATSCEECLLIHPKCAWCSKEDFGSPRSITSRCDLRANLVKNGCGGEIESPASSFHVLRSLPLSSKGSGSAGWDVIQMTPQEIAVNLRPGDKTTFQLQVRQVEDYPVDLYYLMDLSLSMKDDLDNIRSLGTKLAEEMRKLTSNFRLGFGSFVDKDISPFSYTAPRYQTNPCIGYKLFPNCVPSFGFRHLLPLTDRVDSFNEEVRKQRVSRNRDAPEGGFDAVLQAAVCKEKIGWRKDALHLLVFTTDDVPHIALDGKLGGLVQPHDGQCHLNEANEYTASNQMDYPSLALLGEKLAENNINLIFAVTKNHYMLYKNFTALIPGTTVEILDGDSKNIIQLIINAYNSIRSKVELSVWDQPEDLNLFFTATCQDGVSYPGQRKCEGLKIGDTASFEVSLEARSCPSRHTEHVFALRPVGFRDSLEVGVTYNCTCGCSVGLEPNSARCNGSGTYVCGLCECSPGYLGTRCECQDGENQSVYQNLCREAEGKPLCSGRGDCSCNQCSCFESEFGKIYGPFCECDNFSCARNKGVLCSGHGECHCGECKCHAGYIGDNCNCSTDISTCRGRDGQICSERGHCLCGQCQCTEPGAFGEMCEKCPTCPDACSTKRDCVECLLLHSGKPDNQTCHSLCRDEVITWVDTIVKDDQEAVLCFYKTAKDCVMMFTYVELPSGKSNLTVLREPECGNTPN
T1 sequence (P06756 31-992 limits assumed): as the sequence (P06756 31-992 limits assumed) above
T1 sequence (P18564 22-707 limits assumed): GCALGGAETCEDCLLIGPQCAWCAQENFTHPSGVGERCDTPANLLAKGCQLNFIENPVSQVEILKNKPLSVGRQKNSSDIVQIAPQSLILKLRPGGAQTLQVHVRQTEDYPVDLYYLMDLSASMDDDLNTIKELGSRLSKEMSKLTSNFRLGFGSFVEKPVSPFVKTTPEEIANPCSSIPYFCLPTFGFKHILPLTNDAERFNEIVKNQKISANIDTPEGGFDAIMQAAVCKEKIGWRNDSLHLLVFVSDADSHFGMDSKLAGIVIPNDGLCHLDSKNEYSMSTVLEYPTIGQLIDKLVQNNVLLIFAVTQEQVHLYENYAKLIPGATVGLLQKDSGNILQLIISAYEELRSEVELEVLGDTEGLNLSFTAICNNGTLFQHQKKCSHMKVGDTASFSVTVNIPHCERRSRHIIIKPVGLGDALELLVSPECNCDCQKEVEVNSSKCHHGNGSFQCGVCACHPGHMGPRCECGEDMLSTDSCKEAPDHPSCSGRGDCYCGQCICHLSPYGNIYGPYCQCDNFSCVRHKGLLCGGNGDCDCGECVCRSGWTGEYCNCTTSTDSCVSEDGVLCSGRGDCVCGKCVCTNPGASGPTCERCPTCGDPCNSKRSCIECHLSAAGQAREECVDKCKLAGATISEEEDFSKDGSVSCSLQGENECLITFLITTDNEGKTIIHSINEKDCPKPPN
Sequence of human αVβ1 (P06756 31-992 limits assumed): as the sequence (P06756 31-992 limits assumed) above
Sequence of human αVβ1 (P05556 21-728 limits assumed): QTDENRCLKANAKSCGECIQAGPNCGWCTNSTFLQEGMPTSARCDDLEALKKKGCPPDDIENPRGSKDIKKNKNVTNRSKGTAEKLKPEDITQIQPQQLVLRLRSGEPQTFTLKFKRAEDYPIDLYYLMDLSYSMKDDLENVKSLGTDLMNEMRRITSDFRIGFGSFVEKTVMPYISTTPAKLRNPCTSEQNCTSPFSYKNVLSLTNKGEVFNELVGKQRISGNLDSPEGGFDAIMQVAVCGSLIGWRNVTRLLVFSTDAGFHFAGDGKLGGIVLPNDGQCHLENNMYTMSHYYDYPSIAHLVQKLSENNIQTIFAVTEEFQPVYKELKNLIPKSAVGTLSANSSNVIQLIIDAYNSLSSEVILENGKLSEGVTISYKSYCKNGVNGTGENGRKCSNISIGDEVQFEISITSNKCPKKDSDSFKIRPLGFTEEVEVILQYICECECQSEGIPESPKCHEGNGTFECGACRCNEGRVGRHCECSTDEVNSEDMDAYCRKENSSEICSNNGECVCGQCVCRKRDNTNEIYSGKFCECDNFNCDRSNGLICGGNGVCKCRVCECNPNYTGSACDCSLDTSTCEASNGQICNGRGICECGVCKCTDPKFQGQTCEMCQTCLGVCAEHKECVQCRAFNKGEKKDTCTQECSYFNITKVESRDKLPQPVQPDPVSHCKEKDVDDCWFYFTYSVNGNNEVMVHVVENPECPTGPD
Sequence of human αVβ8 (P06756 31-992 limits assumed): as the sequence (P06756 31-992 limits assumed) above
Sequence of human αVβ8 (P26012 43-684 limits assumed): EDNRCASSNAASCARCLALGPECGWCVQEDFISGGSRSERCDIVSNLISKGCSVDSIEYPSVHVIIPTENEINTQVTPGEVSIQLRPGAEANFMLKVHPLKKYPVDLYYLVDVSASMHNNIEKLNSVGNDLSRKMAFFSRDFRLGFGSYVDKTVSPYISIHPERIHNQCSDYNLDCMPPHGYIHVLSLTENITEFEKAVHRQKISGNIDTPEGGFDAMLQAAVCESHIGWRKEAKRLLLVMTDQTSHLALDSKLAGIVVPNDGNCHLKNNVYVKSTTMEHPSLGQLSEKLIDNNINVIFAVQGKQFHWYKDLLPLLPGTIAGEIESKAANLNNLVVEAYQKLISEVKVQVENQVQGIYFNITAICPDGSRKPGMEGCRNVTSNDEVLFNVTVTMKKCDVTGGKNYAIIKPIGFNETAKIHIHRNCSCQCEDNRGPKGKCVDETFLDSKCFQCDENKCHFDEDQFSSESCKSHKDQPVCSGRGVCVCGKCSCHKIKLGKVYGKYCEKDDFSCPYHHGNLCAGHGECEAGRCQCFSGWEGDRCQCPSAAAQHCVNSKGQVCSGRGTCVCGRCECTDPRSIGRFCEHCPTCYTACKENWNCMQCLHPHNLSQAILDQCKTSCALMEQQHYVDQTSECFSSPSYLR
Sequence of human αVβ3 (P06756 31-992 limits assumed): as the sequence (P06756 31-992 limits assumed) above
Sequence of human αVβ3 (P05106 27-718 limits assumed): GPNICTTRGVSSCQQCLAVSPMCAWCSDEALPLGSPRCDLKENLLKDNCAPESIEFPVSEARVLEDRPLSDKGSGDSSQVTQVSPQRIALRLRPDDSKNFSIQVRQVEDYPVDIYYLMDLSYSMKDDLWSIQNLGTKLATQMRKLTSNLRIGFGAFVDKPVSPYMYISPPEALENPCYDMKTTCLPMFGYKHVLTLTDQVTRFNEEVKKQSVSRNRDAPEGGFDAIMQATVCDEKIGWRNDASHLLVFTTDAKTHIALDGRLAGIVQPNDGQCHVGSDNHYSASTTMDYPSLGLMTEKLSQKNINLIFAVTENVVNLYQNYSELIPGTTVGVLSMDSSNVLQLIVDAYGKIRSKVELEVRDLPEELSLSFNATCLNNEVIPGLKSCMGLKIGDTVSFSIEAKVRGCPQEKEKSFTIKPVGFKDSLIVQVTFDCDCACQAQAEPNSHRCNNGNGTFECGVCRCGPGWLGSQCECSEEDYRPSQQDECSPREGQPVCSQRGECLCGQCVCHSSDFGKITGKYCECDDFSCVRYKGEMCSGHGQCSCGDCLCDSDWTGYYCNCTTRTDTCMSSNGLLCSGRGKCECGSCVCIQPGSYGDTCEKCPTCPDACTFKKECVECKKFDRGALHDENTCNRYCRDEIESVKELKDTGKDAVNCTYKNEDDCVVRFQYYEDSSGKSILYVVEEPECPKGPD

`O=C(O)CC(c1cncc(CO)c1)n1ncc2cc(OCCc3ccc4c(n3)NCCC4)ccc21` (stereo not drawn) [Example 89, 3-(5-(Hydroxymethyl)pyridin-3-yl)-3-(5-(2-(5,6,7,8-tetrahydro-1,8-naphthyridin-2-yl)ethoxy)-1H-indazol-1-yl)propanoic acid]: the IC50 in experiment [1] was determined as 0.42 nM; in experiment [2] it was 370 nM; in experiment [3] it was 3.1 nM; in experiment [4], 5000 nM; in experiment [5] it was 19 nM.
On the same counts, the results for `O=C(O)CC(c1cnc2ccccc2c1)n1ncc2cc(OCCc3ccc4c(n3)NCCC4)ccc21` (stereo not drawn) [Example 48, 3-(Quinolin-3-yl)-3-(5-(2-(5,6,7,8-tetrahydro-1,8-naphthyridin-2-yl)ethoxy)-1H-indazol-1-yl)propanoic acid, TFA] are 0.54 nM, 270 nM, 3.8 nM, 4400 nM and 5.5 nM.
Turning to `O=C(O)CC(c1cnc2ncccc2c1)n1ncc2cc(OCCc3ccc4c(n3)NCCC4)ccc21` (stereo not drawn) [Example 101, 3-(1,8-Naphthyridin-3-yl)-3-(5-(2-(5,6,7,8-tetrahydro-1,8-naphthyridin-2-yl)ethoxy)-1H-indazol-1-yl)propanoic acid, 2 TFA], the IC50 stood at 100 nM in experiment [2], 1.6 nM in experiment [3], 2300 nM in experiment [4] and 5.7 nM in experiment [5].
Turning to `O=C(O)CC(c1cnc(N2CCC2)nc1)n1ncc2cc(OCCc3ccc4c(n3)NCCC4)ccc21` (stereo not drawn) [Example 119, 3-(2-(Azetidin-1-yl)pyrimidin-5-yl)-3-(5-(2-(5,6,7,8-tetrahydro-1,8-naphthyridin-2-yl)ethoxy)-1H-indazol-1-yl)propanoic acid, 2 TFA], the IC50 in experiment [1] was 0.6 nM; in experiment [2] it was 98 nM; in experiment [3], 1.4 nM; in experiment [4], 4400 nM; in experiment [5], 10.6 nM.
Regarding `CNc1ncc(C(CC(=O)O)n2ncc3cc(OCCc4ccc5c(n4)NCCC5)ccc32)cn1` (stereo not drawn) [Example 112, 3-(2-(Methylamino)pyrimidin-5-yl)-3-(5-(2-(5,6,7,8-tetrahydro-1,8-naphthyridin-2-yl)ethoxy)-1H-indazol-1-yl)propanoic acid, 2 TFA], the IC50 in experiment [2] was 93 nM; in experiment [3], 2.9 nM; in experiment [4], 5000 nM; in experiment [5], 21 nM.
Regarding `CCOc1ncc([C@H](CC(=O)O)n2ncc3cc(OCCc4ccc5c(n4)NCCC5)ccc32)cn1` [Example 107, (S)-3-(2-Ethoxypyrimidin-5-yl)-3-(5-(2-(5,6,7,8-tetrahydro-1,8-naphthyridin-2-yl)ethoxy)-1H-indazol-1-yl)propanoic acid, TFA], the IC50 in experiment [1] is 0.32 nM; in experiment [2], 64 nM; in experiment [3] it was 2.4 nM; in experiment [4], 300 nM; in experiment [5], 15 nM.
Regarding `COc1ccc([C@H](CC(=O)O)n2cc3ccc(CCC4CCc5cccnc5N4)cc3n2)cn1` (stereo partly drawn) [Example 72, (3S)-3-(6-Methoxypyridin-3-yl)-3-(6-(2-(1,2,3,4-tetrahydro-1,8-naphthyridin-2-yl)ethyl)-2H-indazol-2-yl)propanoic acid], the half-maximal inhibitory concentration (IC50) is 1.5 nM in experiment [1]; 740 nM in experiment [2]; 4.4 nM in experiment [3]; 3200 nM in experiment [4]; 8.2 nM in experiment [5].
Take `COc1ccc(C(CC(=O)O)n2ncc3cc(OCCc4ccc5c(n4)NCCC5)ccc32)cn1` (stereo not drawn) [Example 34, 3-(6-Methoxypyridin-3-yl)-3-(5-(2-(5,6,7,8-tetrahydro-1,8-naphthyridin-2-yl)ethoxy)-1H-indazol-1-yl)propanoic acid, TFA]: the IC50 is 0.38 nM in experiment [1]; 95 nM in experiment [2]; 2.5 nM in experiment [3]; 1300 nM in experiment [4]; 12 nM in experiment [5].
Regarding `O=C(O)CC(c1cnc2nccnc2c1)n1ncc2cc(OCCc3ccc4c(n3)NCCC4)ccc21` (stereo not drawn) [Example 95, 3-(Pyrido[2,3-b]pyrazin-7-yl)-3-(5-(2-(5,6,7,8-tetrahydro-1,8-naphthyridin-2-yl)ethoxy)-1H-indazol-1-yl)propanoic acid, 2 TFA], the IC50 in experiment [2] was 210 nM; in experiment [3], 2.4 nM; in experiment [4], 7600 nM; in experiment [5] it was 30 nM.
On to `O=C(O)CC(c1cncc(N2CCCC2=O)c1)n1ncc2cc(OCCc3ccc4c(n3)NCCC4)ccc21` (stereo not drawn) [Example 102, 3-(5-(2-Oxopyrrolidin-1-yl)pyridin-3-yl)-3-(5-(2-(5,6,7,8-tetrahydro-1,8-naphthyridin-2-yl)ethoxy)-1H-indazol-1-yl)propanoic acid, 2 TFA], for which the IC50 in experiment [2] was found to be 39 nM; in experiment [3] it was 2.2 nM; in experiment [4], 1300 nM; in experiment [5] it was 4.3 nM.
In the case of `O=C(O)CC(c1cnc2ccccc2n1)n1ncc2cc(CCc3ccc4c(n3)NCCC4)ccc21` (stereo not drawn) [Example 27, 3-(Quinoxalin-2-yl)-3-(5-(2-(5,6,7,8-tetrahydro-1,8-naphthyridin-2-yl)ethyl)-1H-indazol-1-yl)propanoic acid], the IC50 in experiment [5] amounted to 240 nM.
As to `O=C(O)CC(C1CCCCC1)n1ncc2cc(OCCc3ccc4c(n3)NCCC4)ccc21` (stereo not drawn) [Example 164, 3-cyclohexyl-3-(5-(2-(5,6,7,8-tetrahydro-1,8-naphthyridin-2-yl)ethoxy)-1H-indazol-1-yl)propanoic acid], in experiment [5], the IC50 was 3200 nM.
Consider `O=C(O)CC(c1cnc2c(c1)OCCO2)n1ncc2cc(OCCc3ccc4c(n3)NCCC4)ccc21` (stereo not drawn) [Example 109, 3-(2,3-Dihydro-[1,4]dioxino[2,3-b]pyridin-7-yl)-3-(5-(2-(5,6,7,8-tetrahydro-1,8-naphthyridin-2-yl)ethoxy)-1H-indazol-1-yl)propanoic acid, 2 TFA], for which the IC50 in experiment [2] came out at 62 nM; in experiment [3], 1.3 nM; in experiment [4], 9300 nM; in experiment [5], 15 nM.
As for `O=C(O)CC(c1ccncc1)n1ncc2cc(OCCc3ccc4c(n3)NCCC4)ccc21` (stereo not drawn) [Example 75, 3-(Pyridin-4-yl)-3-(5-(2-(5,6,7,8-tetrahydro-1,8-naphthyridin-2-yl)ethoxy)-1H-indazol-1-yl)propanoic acid, 2 TFA], the IC50 in experiment [5] came to 23 nM.
Same read-out and setting: as for `O=C(O)CC(c1cncc(Cl)c1)n1ncc2cc(OCCc3ccc4c(n3)NCCC4)ccc21` (stereo not drawn) [Example 42, 3-(5-Chloropyridin-3-yl)-3-(5-(2-(5,6,7,8-tetrahydro-1,8-naphthyridin-2-yl)ethoxy)-1H-indazol-1-yl)propanoic acid, TFA], the figure is 4.4 nM.
On the same count and under the same terms, the same measure for `O=C(O)CC(c1cc(Cl)cc(Cl)c1)n1ncc2cc(CCCc3ccc4c(n3)NCCC4)ccc21` (stereo not drawn) [Example 21, 3-(3,5-Dichlorophenyl)-3-(5-(3-(5,6,7,8-tetrahydro-1,8-naphthyridin-2-yl)propyl)-1H-indazol-1-yl)propanoic acid]: 44 nM.
Still for that read-out and setting: as for `CCCC(CC(=O)O)n1ncc2cc(OCCc3ccc4c(n3)NCCC4)ccc21` (stereo not drawn) [Example 162, 3-(5-(2-(5,6,7,8-tetrahydro-1,8-naphthyridin-2-yl)ethoxy)-1H-indazol-1-yl)hexanoic acid], the figure is 730 nM.
For `O=C(O)CC(c1ccccc1)n1ncc2cc(OCCCc3ccc4c(n3)NCCC4)ccc21` (stereo not drawn) [Example 5, 3-Phenyl-3-(5-(3-(5,6,7,8-tetrahydro-1,8-naphthyridin-2-yl)propoxy)-1H-indazol-1-yl)propanoic acid], the IC50 in experiment [5] is 440 nM.
